In publication PMC10766610, “DCAF1-based PROTACs with activity against clinically validated targets overcoming intrinsic- and acquired-degrader resistance” (Nature Communications, 2024):
Read-outs that look alike come from different tables or passages of the source.

How the values were obtained:
DCAF1(WDR) = molecular target: T1, DCAF1(WDR) (Homo sapiens, UniProt Q9Y4B6, E1398S); assay: DCAF1 TR-FRET competition assay, standard binary format; format: binding
T1 construct: His6 (C); made in house; host or cells: Sf9 insect cells (baculovirus), co-expressed with BirA
T1 sequence (Q9Y4B6 1073-1399 E1398S): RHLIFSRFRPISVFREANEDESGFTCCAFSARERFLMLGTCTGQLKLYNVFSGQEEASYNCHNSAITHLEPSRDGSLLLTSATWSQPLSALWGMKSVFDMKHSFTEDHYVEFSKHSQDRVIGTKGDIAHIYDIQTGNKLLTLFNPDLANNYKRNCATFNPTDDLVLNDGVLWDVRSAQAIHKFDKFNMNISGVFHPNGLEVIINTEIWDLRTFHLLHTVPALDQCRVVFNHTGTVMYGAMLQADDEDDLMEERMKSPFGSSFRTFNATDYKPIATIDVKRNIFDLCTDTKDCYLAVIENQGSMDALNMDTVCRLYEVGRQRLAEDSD
Method: Competition assay conditions consist of 20 µL total volume in white 384-well plates (Greiner), in 30 mM phosphate buffer pH 7.4 containing 140 mM NaCl, 0.01% Tween20, 1 mM TCEP and 1% final DMSO. Tested compounds at 14 different concentrations were pre-incubated at 22 °C for 30 min with a large excess of 10 µM human BTK (G389-S659) or 10 µM human BRD9-BD(130-250) in the cooperative assay or with buffer in standard binary assay. […] Samples were then incubated at 22 °C for 30 min before reading using a Tecan infinite M-1000 or PheraStar FSX (excitation 340 nm, emission 490 and 520 nm). DCAF1 protein was omitted in the negative control. IC50 fitting was carried out using an in-house developed software (Novartis Helios software application, unpublished, a publicly available alternative would be e.g., Graphpad Prism) using the methods described by Fomenko et al.[93] (regression algorithms for nonlinear dose-response curve fitting). Following normalization of activity values for the wells to % inhibition (% inhibition = [(high control-sample)/(high control-low control)] × 100). Data analysis could also be carried out using GraphPad Prism without prior normalization. The reported IC50 values are the average of at least two independent experiments.

DCAF1(WDR) + BTK = molecular target: T2, DCAF1(WDR) + BTK (Homo sapiens, UniProt Q06187+Q9Y4B6, E1398S); assay: SPR ternary binding assay, immobilized DCAF1(WDR), BTK (389-659) in buffer; details: Fig. 6b
T2 construct: BTK (389-659) or BRD9; His6 (C); His (PreScission site) (N); made in house; host or cells: Sf9 insect cells (both chains)
T2 sequence (Q9Y4B6 1073-1399 E1398S): as above
T2 sequence (Q06187 389-659): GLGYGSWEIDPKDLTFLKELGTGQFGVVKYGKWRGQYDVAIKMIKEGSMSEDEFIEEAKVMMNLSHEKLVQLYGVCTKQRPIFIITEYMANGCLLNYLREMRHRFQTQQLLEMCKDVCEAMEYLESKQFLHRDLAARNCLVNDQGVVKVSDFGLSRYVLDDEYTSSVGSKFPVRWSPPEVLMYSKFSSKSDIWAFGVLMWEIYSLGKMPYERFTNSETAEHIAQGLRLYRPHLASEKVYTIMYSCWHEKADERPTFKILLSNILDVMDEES
Description: Supplementary figure 8. SPR data of binary and ternary DCAF1-BTK PROTACs
without additional BTK as analytes. […] In
the middle panel the steady state fit responses are blotted against the PROTAC concentrations The
Source data are provided as a Source Data file

BTK = BTK (Homo sapiens, UniProt Q06187); assay: Intracellular BTK engagement NanoBRET, intact HEK293A cells; format: cell-based; details: 2 h, read-out: IC50 BTK target engagement
BTK, sequence (Q06187 2-659 limits assumed): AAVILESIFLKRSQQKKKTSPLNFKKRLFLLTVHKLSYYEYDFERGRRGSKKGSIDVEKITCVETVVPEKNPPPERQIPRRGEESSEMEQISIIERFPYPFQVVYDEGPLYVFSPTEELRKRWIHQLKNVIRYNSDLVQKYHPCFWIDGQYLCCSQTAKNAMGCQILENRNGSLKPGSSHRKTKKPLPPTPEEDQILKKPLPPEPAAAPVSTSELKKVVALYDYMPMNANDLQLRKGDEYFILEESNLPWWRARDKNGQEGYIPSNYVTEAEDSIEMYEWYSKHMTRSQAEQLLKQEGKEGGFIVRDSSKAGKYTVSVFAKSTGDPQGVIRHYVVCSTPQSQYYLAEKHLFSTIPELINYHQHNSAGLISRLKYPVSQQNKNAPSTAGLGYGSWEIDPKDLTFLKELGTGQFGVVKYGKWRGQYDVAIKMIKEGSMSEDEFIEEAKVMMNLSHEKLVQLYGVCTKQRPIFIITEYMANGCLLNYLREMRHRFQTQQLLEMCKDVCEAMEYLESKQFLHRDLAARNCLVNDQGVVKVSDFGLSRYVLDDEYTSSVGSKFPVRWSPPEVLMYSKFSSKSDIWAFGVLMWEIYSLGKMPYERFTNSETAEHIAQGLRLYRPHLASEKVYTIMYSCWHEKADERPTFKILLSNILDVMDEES
Method: Thus, HEK293A cells were batch-transfected by adding 1 μg pLenti6 BTK-Nanoluc vector and 9 μg Transfection Carrier DNA (pcDNA3.1 Hygro+) to 1 mL of Opti-MEM without phenol red (Thermo Fisher). After addition of 40 μL ViaFect (Promega) and incubation for 20 min, the DNA:lipid mixture was added to trypsinized HEK293A cells suspended at 2 × 10^5/mL in 10 ml growth medium. 100 μL of the resulting cell:DNA:lipid suspension was then seeded at 2 × 10^4 cells/well into white, clear-bottom 96-well plates (Costar) that were pre-coated with poly-D-Lysine by incubation for 60 min with 30 μL of a sterile-filtered solution of 0.1 mg PDL (Mpbio) dissolved in phosphate-buffered saline, followed by a wash with 200 μL sterile phosphate-buffered and airdrying. […] To measure BRET, NanoBRET NanoGlo substrate (Promega, final dilution of 1:1000) and Extracellular NanoLuc Inhibitor (Promega, final concentration 20 μM) were added, followed by quantification of donor and acceptor luminescence emission on a Pherastar FX (BMG Labtech) multimode reader using 460 nm band-pass and 610 nm long-pass filters, respectively. […]
The mBU values for each treated sample was then divided by the average mBU value determined based on four DMSO-treated vehicle control samples and multiplied by 100 to arrive at % of vehicle-treated control. […]

[1] = ± SD (n), read-out: IC50 DCAF1 TR-FRET

Compound	IC50 (DCAF1(WDR); binary, compound alone, spread in brackets, read-out: TR-FRET Q. IC50)	IC50 (DCAF1(WDR); [1])	Kd (DCAF1(WDR) + BTK)	IC50 (BTK)
COc1cc(-c2cn(C)c(=O)c3cnccc23)c(OC)cc1CN1CCC(OCCCCCC(=O)N2CCN(c3ccc4c(NCCN)nc(C5(c6ccc(Cl)cc6)CCCCC5)nc4c3)CC2)CC1 [DBr-1]	38 nM			
Cc1c(NC(=O)c2ccc(C(C)(C)O)cc2F)cc(F)cc1-c1ncnc2[nH]c(-c3ccc(CNCCOCCOCCOCCOCCOCCOCCOCCOCCOCCOCCOCCOCCC(=O)N4CCN(c5ccc6c(NCCN)nc(C7(c8ccc(Cl)cc8)CCCCC7)nc6c5)CC4)cc3)cc12 [DBt-5]		23 ± 5 nM	480 nM	392 nM
Cc1c(NC(=O)N2CC(O)(CC(C)(C)C)C2)cc(F)cc1-c1ncnc2[nH]c(-c3cnn(CC(=O)N4CCC5(CC4)CN(CCNC(=O)CCCC(=O)N4CCN(c6ccc7c(NCCN)nc(C8(c9ccc(Cl)cc9)CCCCC8)nc7c6)CC4)CCO5)c3)cc12 [DBt-10]		134 ± 68 nM	33 nM	1680 nM
